Assay: Phase I safety and tolerability (DLTs, adverse events, laboratory, ECG)
Type: in vivo
Description: This study employed a standard 3 + 3 dose escalation design with a starting dose of 25 mg QD. […] Dose escalation decisions took into account all available data from evaluable subjects as well as PK and the safety profile of prior dose cohorts. […] There was a minimum 5-day stagger between dosing of the first and second subjects in each dose cohort. Dose escalation decisions were made by a data review committee (DRC) composed of, at minimum, the medical monitor, at least one principal investigator, and a sponsor representative, per the study DRC Plan. Dose escalation could continue until 2 or more subjects in the same dose cohort experienced a dose-limiting toxicity (DLT). DLTs were defined as Grade 3 or 4 adverse drug reactions (ADRs), with grades as defined in the National Cancer Institute Common Toxicity Criteria for Adverse Events (NCI-CTCAE) version 5.0. […] The MTD was defined as the highest dose at which no more than 1 of 6 subjects experienced a DLT during cycle 1 of the study drug. The MTD would have been exceeded if 2 or more subjects in a dose cohort of up to 6 subjects experienced a DLT. Subjects could continue treatment until disease progression, unacceptable toxicity, death, withdrawal of consent, or loss to follow-up.
Before enrolment in the study, all patients received a detailed medical history and physical examination. Clinical laboratory evaluations included clinical chemistry, complete blood count, urinalysis, coagulation factors, and a lipid panel. Other safety assessments included vital signs, physical examination, electrocardiogram, and echocardiogram with multigated acquisition (ECHO/MUGA). Safety assessments were performed on days 1, 8, 15, and 21 of cycle 1, and on day 1 of cycles 2 to 6.

[1] = Grade All, Overall Study (N = 35)
[2] = Possibly related, Overall BID (N = 15)
[3] = Possibly related, Overall QD (N = 20)
[4] = Possibly related, Overall Study (N = 35)
[5] = Probably related, Overall BID (N = 15)
[6] = Probably related, Overall QD (N = 20)
[7] = Probably related, Overall Study (N = 35)
[8] = Relatedness All, Overall BID (N = 15)
[9] = Relatedness All, Overall QD (N = 20)
[10] = Relatedness All, Overall Study (N = 35)

Question: Which results are given for `Nc1ncc(-c2cnn(C3CCNCC3)c2)cc1-c1nnc(CC2CC2)o1` [SLC-391, 3-(5-[cyclopropylmethyl]-1,3,4-oxadiazol-2-yl)-5-(1-[piperidin-4-yl]-1H-pyrazol-4-yl)-pyridin-2-amine]?
Answer: TEAE: Musculoskeletal and connective tissue disorders [1]: 14 (40.0) n (%); TEAE: Nausea [1]: 24 (68.6) n (%); TEAE: Nervous system disorders [1]: 15 (42.9) n (%); TEAE: Oedema peripheral [1]: 4 (11.4) n (%); TEAE: Psychiatric disorders [1]: 5 (14.3) n (%); TEAE: Pyrexia [1]: 5 (14.3) n (%); TEAE: Renal and urinary disorders [1]: 6 (17.1) n (%); TEAE: Respiratory, thoracic, and mediastinal disorders [1]: 19 (54.3) n (%); TEAE: Skin and subcutaneous tissue disorders [1]: 10 (28.6) n (%); TEAE: Urinary tract infection [1]: 4 (11.4) n (%); TEAE: Vascular disorders [1]: 5 (14.3) n (%); TEAE: Vomiting [1]: 17 (48.6) n (%); TEAE: Weight decreased [1]: 6 (17.1) n (%); Any treatment-related adverse event (TRAE) [2]: 7 (46.7%) n (%); TRAE: Decreased appetite [2]: 1 (6.7%) n (%); TRAE: Diarrhoea [2]: 4 (26.7%) n (%); TRAE: Dysgeusia [2]: 1 (6.7%) n (%); TRAE: Fatigue [2]: 3 (20.0%) n (%); TRAE: Gastrointestinal disorders [2]: 5 (33.3%) n (%); TRAE: General disorders and administration site conditions [2]: 3 (20.0%) n (%); TRAE: Metabolism and nutrition disorders [2]: 1 (6.7%) n (%); TRAE: Nausea [2]: 4 (26.7%) n (%); TRAE: Nervous system disorders [2]: 1 (6.7%) n (%); TRAE: Skin and subcutaneous tissue disorders [2]: 2 (13.3%) n (%); TRAE: Vomiting [2]: 1 (6.7%) n (%); Any treatment-related adverse event (TRAE) [3]: 8 (40.0%) n (%); TRAE: Decreased appetite [3]: 3 (15.0%) n (%); TRAE: Diarrhoea [3]: 5 (25.0%) n (%); TRAE: Dysgeusia [3]: 0 n (%); TRAE: Fatigue [3]: 2 (10.0%) n (%); TRAE: Gastrointestinal disorders [3]: 8 (40.0%) n (%); TRAE: General disorders and administration site conditions [3]: 3 (15.0%) n (%); TRAE: Metabolism and nutrition disorders [3]: 4 (20.0%) n (%); TRAE: Nausea [3]: 5 (25.0%) n (%); TRAE: Nervous system disorders [3]: 1 (5.0%) n (%); TRAE: Skin and subcutaneous tissue disorders [3]: 4 (20.0%) n (%); TRAE: Vomiting [3]: 3 (15.0%) n (%); Any treatment-related adverse event (TRAE) [4]: 15 (42.9%) n (%); TRAE: Decreased appetite [4]: 4 (11.4%) n (%); TRAE: Diarrhoea [4]: 9 (25.7%) n (%); TRAE: Dysgeusia [4]: 1 (2.9%) n (%); TRAE: Fatigue [4]: 5 (14.3%) n (%); TRAE: Gastrointestinal disorders [4]: 13 (37.1%) n (%); TRAE: General disorders and administration site conditions [4]: 6 (17.1%) n (%); TRAE: Metabolism and nutrition disorders [4]: 5 (14.3%) n (%); TRAE: Nausea [4]: 9 (25.7%) n (%); TRAE: Nervous system disorders [4]: 2 (5.7%) n (%); TRAE: Skin and subcutaneous tissue disorders [4]: 6 (17.1%) n (%); TRAE: Vomiting [4]: 4 (11.4%) n (%); Any treatment-related adverse event (TRAE) [5]: 1 (6.7%) n (%); TRAE: Diarrhoea [5]: 1 (6.7%) n (%); TRAE: Dysgeusia [5]: 0 n (%); TRAE: Gastrointestinal disorders [5]: 1 (6.7%) n (%); TRAE: Nausea [5]: 0 n (%); TRAE: Nervous system disorders [5]: 0 n (%); TRAE: Skin and subcutaneous tissue disorders [5]: 0 n (%); TRAE: Vomiting [5]: 0 n (%); Any treatment-related adverse event (TRAE) [6]: 3 (15.0%) n (%); TRAE: Diarrhoea [6]: 0 n (%); TRAE: Dysgeusia [6]: 1 (5.0%) n (%); TRAE: Gastrointestinal disorders [6]: 2 (10.0%) n (%); TRAE: Nausea [6]: 2 (10.0%) n (%); TRAE: Nervous system disorders [6]: 2 (10.0%) n (%); TRAE: Skin and subcutaneous tissue disorders [6]: 2 (10.0%) n (%); TRAE: Vomiting [6]: 1 (5.0%) n (%); Any treatment-related adverse event (TRAE) [7]: 4 (11.4%) n (%); TRAE: Diarrhoea [7]: 1 (2.9%) n (%); TRAE: Dysgeusia [7]: 1 (2.9%) n (%); TRAE: Gastrointestinal disorders [7]: 3 (8.6%) n (%); TRAE: Nausea [7]: 2 (5.7%) n (%); TRAE: Nervous system disorders [7]: 2 (5.7%) n (%); TRAE: Skin and subcutaneous tissue disorders [7]: 2 (5.7%) n (%); TRAE: Vomiting [7]: 1 (2.9%) n (%); SAEs, subjects (QD cohorts): 20.0%; TEAEs leading to treatment interruption or missed dose (QD cohorts): 20.0%; TEAEs leading to treatment or study discontinuation, subjects (QD cohorts): 20.0%; subjects with Grade 3 TEAEs (QD cohorts): 30.0%; subjects with TRAEs (QD cohorts): 90.0%; subjects with at least one TEAE (QD cohorts): 95.0%; Any treatment-related adverse event (TRAE) [8]: 13 (86.7%) n (%); TRAE: Decreased appetite [8]: 3 (20.0%) n (%); TRAE: Diarrhoea [8]: 7 (46.7%) n (%); TRAE: Dysgeusia [8]: 2 (13.3%) n (%); TRAE: Fatigue [8]: 4 (26.7%) n (%); TRAE: Gastrointestinal disorders [8]: 11 (73.3%) n (%); TRAE: General disorders and administration site conditions [8]: 4 (26.7%) n (%); TRAE: Metabolism and nutrition disorders [8]: 3 (20.0%) n (%); TRAE: Nausea [8]: 8 (53.3%) n (%); TRAE: Nervous system disorders [8]: 2 (13.3%) n (%); TRAE: Skin and subcutaneous tissue disorders [8]: 2 (13.3%) n (%); TRAE: Vomiting [8]: 4 (26.7%) n (%); Any treatment-related adverse event (TRAE) [9]: 18 (90.0%) n (%); TRAE: Decreased appetite [9]: 5 (25.0%) n (%); TRAE: Diarrhoea [9]: 10 (50.0%) n (%); TRAE: Dysgeusia [9]: 2 (10.0%) n (%); TRAE: Fatigue [9]: 5 (25.0%) n (%); TRAE: Gastrointestinal disorders [9]: 16 (80.0%) n (%); TRAE: General disorders and administration site conditions [9]: 6 (30.0%) n (%); TRAE: Metabolism and nutrition disorders [9]: 6 (30.0%) n (%); TRAE: Nausea [9]: 11 (55.0%) n (%); TRAE: Nervous system disorders [9]: 4 (20.0%) n (%); TRAE: Skin and subcutaneous tissue disorders [9]: 6 (30.0%) n (%); TRAE: Vomiting [9]: 9 (45.0%) n (%); Any treatment-related adverse event (TRAE) [10]: 31 (88.6%) n (%); TRAE: Decreased appetite [10]: 8 (22.9%) n (%); TRAE: Diarrhoea [10]: 17 (48.6%) n (%); TRAE: Dysgeusia [10]: 4 (11.4%) n (%); TRAE: Fatigue [10]: 9 (25.7%) n (%); TRAE: Gastrointestinal disorders [10]: 27 (77.1%) n (%); TRAE: General disorders and administration site conditions [10]: 10 (28.6%) n (%); TRAE: Metabolism and nutrition disorders [10]: 9 (25.7%) n (%); TRAE: Nausea [10]: 19 (54.3%) n (%); TRAE: Nervous system disorders [10]: 6 (17.1%) n (%); TRAE: Skin and subcutaneous tissue disorders [10]: 8 (22.9%) n (%); TRAE: Vomiting [10]: 13 (37.1%) n (%); deaths (after study drug discontinuation due to progressive disease): Two deaths; heme toxicity, ECG, neutrophil count, QT interval/QTcF (all subjects): no reports of heme toxicity or clinically significant abnormal ECG and neutrophil count changes, including QT interval or QTcF prolongation; TEAEs leading to drug withdrawal or study discontinuation, subjects (all subjects (7/35)): 20.0%; subjects with at least one TEAE (all subjects (34/35)): 97.1%; subjects with Grade 3 TRAEs considered related to SLC-391 (all subjects (N = 35)): 8.6%; subjects with a maximum of Grade 1 TEAEs (all subjects (N = 35)): 8.6%; subjects with a maximum of Grade 2 TEAEs (all subjects (N = 35)): 54.3%; subjects with a maximum of Grade 3 TEAEs (all subjects (N = 35)): 34.3%; subjects with dosing interrupted due to TEAEs (all subjects (N = 35)): 25.7%; subjects with one or more TRAE (all subjects (N = 35)): 88.6%; subjects with SAEs (all subjects (N = 35), eight SAEs in five subjects): 14.3%; subjects with SAEs leading to dose interruption, drug withdrawal, or study discontinuation (all subjects (N = 35), four SAEs in three subjects): 8.6%; dose recommended by the safety review committee for further investigations (based on safety profile, PK and in vitro/in vivo efficacy data): 150 mg BID; clinical chemistry-related toxicities (hypokalaemia, hypomagnesaemia, hyponatraemia, hypophosphataemia, increased blood creatinine, decreased blood zinc, all unrelated to SLC-391): Most clinical chemistry-related toxicities were Grade 1 or 2
